From patent US5874446A, “Benzopyran derivatives” (Chugai Seiyaku Kabushiki Kaisha, priority 1992, dated 1999)

Legend:
[1] = tested on: Excised Aorta of Rat (thoracic aorta ring preparations); experiment: Test with Excised Aorta of Rat: relaxation of lasting contraction by KCl; assay type: cell-based, male Sprague Dawley rat; settings: 50% inhibitory concentration, relaxation of 30 mM KCl contraction, Krebs-Henseleit, 37° C.
Method: Test with Excised Aorta of Rat
The thoracic aorta was excised from a male Sprague Dawley rat (450 to 600 g) and cut into 2 mm wide ring preparations. Each preparation was suspended in 10 ml of an Organ bath containing a Krebs-Henseleit solution (NaCl:119; KCl:4.8; CaCl2.2H2 O:2.53; KH2 PO4 :1.2; MgSO4.7H2 O:1.2; NaHCO3 :24.8; glucose:10(mM); 37° C.) under a tension of 2 g, and a mixed gas of 95% O2 and 5% CO2 was bubbled therethrough. Contraction reactions of the preparation were isometrically recorded by means of an FD pick-up. […] The activity of a test compound to relax a lasting contraction by the addition of KCl was evaluated by obtaining a 50% inhibitory concentration (IC50)
The compounds of the present invention obtained in the foregoing Examples and Cromakalim was used as test compound for comparison.

[2] = tested on: Guinea Pig Tracheal Muscle; experiment: Test with Guinea Pig Tracheal Muscle: relaxing activity on spontaneous tension; assay type: cell-based, male Hartley guinea pig; settings: Cavia porcellus; 50% relaxing activity; 1 mM aminophylline on spontaneous tension taken as 100%; Krebs-Henseleit, 37° C.
Method: Test with Guinea Pig Tracheal Muscle
The trachea was excised from a male Hartley guinea pig (450 to 550 g) to make chain preparations. The preparation was suspended in a bath containing the abovementioned Krebs-henseleit solution (37° C.) through which a mixed gas of 95% O2 and 5% CO2 was bubbled. Contraction reactions of the preparation were isometrically recorded under a tension of 1 g.
The same test compound as used in Text Example 1 were used.

| IC50 [1] [nM] | IC50 [2] [nM] | Compound |
| --- | --- | --- |
| 74 | 390 | N#Cc1ccc2c(c1)[C@@H](N1CCCC1=O)[C@H](O)C(CF)(CF)O2 (relative stereo) [Compound 2-2, Trans-6-cyano-2,2-bisfluoromethyl-3,4-dihydro-4-(2-oxo-1-pyrrolidinyl)-2H-1-benzopyran-3-ol] |
| 0.28 | 6.9 | O=C1CCCCN1[C@@H]1c2cc(C(F)(F)C(F)(F)F)ccc2OC(CF)(CF)[C@H]1O (relative stereo) [Compound 4-2, Trans-6-pentafluoroethyl-2,2-bisfluoromethyl-3,4-dihydro-4-(2-oxo-1-piperidinyl)-2H-1-benzopyran-3-ol] |
| 2.6 | 6.8 | O=C1CCCCN1[C@@H]1c2cc([N+](=O)[O-])ccc2OC(CF)(CF)[C@H]1O (relative stereo) [Compound 6-2, Trans-2,2-bisfluoromethyl-3,4-dihydro-6-nitro-4-(2-oxo-1-piperidinyl)-2H-1-benzopyran-3-ol] |

The remaining lines, values behind:

| Compound | IC50 [1] [nM] | IC50 [2] [nM] |
| --- | --- | --- |
| CC1(C)Oc2ccc(C#N)cc2[C@@H](N2CCCC2=O)[C@@H]1O (relative stereo) [Cromakalim, reference compound] | 170 | 860 |
| O=c1ccccn1C1=CC(CF)(CF)Oc2ccc([N+](=O)[O-])cc21 [Compound 12, 2,2-Bisfluoromethyl-6-nitro-4-(1,2-dihydro-2-oxo-1-pyridyl)-2H-1-benzopyran] | 2.5 | 5.9 |
| [O-][n+]1ccccc1C1=CC(CF)(CF)Oc2ccc(C(F)(F)C(F)(F)F)cc21 [Compound 48, 2-(6-Pentafluoroethyl-2,2-bisfluoromethyl-2H-1-benzopyran-4-yl)pyridine N-oxide] | 1.6 | 3.9 |
| [O-][n+]1ccccc1C1=CC(CF)(CF)Oc2ccc(C(F)(F)F)cc21 [Compound 50, 2-(2,2-Bisfluoromethyl-6-trifluoromethyl-2H-1-benzopyran-4-yl)pyridine N-oxide] |  | 18 |
| N#C[N-][n+]1ccccc1C1=CC(CF)(CF)Oc2ccc([N+](=O)[O-])cc21 [Compound 52, 2-(2,2-Bisfluoromethyl-6-nitro-2H-1-benzopyran-4-yl)pyridine N-cyanoimine] | 2 | 12 |
| N#C[N-][n+]1ccccc1C1=CC(CF)(CF)Oc2ccc(C(F)(F)C(F)(F)F)cc21 [Compound 55, 2-(6-Pentafluoroethyl-2,2-bisfluoromethyl-2H-1-benzopyran-4-yl)pyridine N-cyanoimine] | 0.82 | 6.3 |
